{"source": "ChEMBL document CHEMBL1201862", "about": "“PubChem BioAssay data set” (2004)", "key": {"[1]": {"target": "Protein disulfide-isomerase (Homo sapiens, UniProt P07237)", "sequence (P07237 whole entry)": "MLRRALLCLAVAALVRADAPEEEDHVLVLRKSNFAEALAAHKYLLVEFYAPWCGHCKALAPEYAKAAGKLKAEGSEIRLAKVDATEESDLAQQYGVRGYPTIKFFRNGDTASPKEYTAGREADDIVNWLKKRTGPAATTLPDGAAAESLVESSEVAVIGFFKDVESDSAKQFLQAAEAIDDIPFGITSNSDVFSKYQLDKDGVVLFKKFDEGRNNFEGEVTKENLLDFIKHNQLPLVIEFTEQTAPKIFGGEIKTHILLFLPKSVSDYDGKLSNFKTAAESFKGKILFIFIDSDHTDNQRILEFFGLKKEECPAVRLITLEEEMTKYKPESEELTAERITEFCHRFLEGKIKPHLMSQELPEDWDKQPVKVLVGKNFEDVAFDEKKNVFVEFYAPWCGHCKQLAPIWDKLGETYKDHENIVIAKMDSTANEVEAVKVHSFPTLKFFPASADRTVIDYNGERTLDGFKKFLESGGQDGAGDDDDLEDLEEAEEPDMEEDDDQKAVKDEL", "test": "PDI inhibitors, insulin aggregation turbidity, dose response, biochemical, absorbance, cherry-picked samples (AID 602350)", "assay_type": "functional"}, "[2]": {"test": "A Cell Based Secondary Assay to Explore Cytotoxicity in THP-1 Cells of Compounds that Modulate Mycobacterium tuberculosis in Media Containing Glycerol versus Media without Glycerol (2).", "assay_type": "functional"}, "[3]": {"test": "cytotoxicity toward DRD oncogenic fibroblasts, dose response, cell-based, non-viral oncogenic, luminescence (AID 1934)", "assay_type": "functional", "settings": "Homo sapiens"}, "[4]": {"target": "Heat shock protein HSP 90-alpha (Homo sapiens, UniProt P07900)", "assay_type": "functional, organism-based"}, "[5]": {"tested_on": "Streptococcus sp. 'group A'", "test": "growth inhibition of control SK(-) GAS strain, dose response, counter-screen for streptokinase expression inhibitor project, luminescence, kanamycin, BacTiterGlo, confirmation (AID 1900)", "assay_type": "functional, organism-based"}, "[6]": {"test": "THP-1 cell cytotoxicity, cytotoxicity control, set 4 (AID 504911)", "assay_type": "functional", "settings": "Mycobacterium tuberculosis"}, "[7]": {"target": "T1, Streptokinase A (Streptococcus pyogenes serotype M1, UniProt P10520)", "T1 sequence (P10520 whole entry)": "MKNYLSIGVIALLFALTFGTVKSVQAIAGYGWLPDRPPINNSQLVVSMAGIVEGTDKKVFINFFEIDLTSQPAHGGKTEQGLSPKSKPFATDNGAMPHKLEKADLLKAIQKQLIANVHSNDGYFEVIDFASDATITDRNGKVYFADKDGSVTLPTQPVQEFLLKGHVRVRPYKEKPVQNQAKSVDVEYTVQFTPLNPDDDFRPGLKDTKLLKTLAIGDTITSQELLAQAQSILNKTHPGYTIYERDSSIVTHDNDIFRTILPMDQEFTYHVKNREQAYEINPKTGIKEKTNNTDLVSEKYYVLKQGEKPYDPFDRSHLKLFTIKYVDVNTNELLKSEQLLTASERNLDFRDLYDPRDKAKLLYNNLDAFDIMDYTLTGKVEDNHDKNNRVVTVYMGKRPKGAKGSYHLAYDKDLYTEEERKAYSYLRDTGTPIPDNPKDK", "test": "S. pyogenes streptokinase expression inhibitors, potency, dose response, plasminogen activation absorbance, OD405 (AID 1914);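 also: secreted streptokinase activity via plasminogen activation per viability signal from cell pellet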", "assay_type": "functional, Streptococcus pyogenes M1 GAS"}, "[8]": {"tested_on": "Streptococcus", "test": "Group A Streptococcus viability loss, dose response, counter-screen for streptokinase expression inhibitor project, luminescence, BacTiterGlo (AID 1915);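 also: potency for reduction of bacterial viability or growth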", "assay_type": "functional, organism-based"}, "[9]": {"test": "Vero cell cytotoxicity, cytotoxicity control for M. tuberculosis inhibitor project, purified and synthesized samples, set 3 (AID 504684)", "assay_type": "functional", "settings": "[…]"}, "[10]": {"tested_on": "BJ", "test": "cytotoxicity toward BJ-TERT fibroblasts, dose response, cell-based, RAS-independent, luminescence (AID 1933)", "assay_type": "functional", "settings": "Homo sapiens"}, "[11]": {"target": "T2, Heat shock factor protein 1 (Mus musculus, UniProt P38532)", "T2 sequence (P38532 whole entry)": "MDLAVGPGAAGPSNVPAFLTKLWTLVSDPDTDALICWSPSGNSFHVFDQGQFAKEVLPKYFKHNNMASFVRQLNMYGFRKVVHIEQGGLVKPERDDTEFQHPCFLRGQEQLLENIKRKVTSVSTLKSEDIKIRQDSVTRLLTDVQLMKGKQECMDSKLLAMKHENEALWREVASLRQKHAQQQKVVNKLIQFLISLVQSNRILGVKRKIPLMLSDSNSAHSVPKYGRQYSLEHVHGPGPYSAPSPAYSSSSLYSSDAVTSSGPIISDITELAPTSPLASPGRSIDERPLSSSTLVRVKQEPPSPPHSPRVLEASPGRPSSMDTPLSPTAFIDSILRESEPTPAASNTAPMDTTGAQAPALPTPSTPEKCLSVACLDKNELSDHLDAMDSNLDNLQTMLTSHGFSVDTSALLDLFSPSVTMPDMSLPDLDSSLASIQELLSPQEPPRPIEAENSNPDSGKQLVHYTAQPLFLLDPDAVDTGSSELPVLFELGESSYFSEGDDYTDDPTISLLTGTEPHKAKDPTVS", "test": "HSF1 potentiators in luciferase reporter cells, confirmation, cell-based, NIH3T3, luminescence, dose retest (AID 435004);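 also: stress induced by proteasome inhibitor MG132 added 30 min after compound; actives raise luminescence as potentiators of the MG132 stress response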", "assay_type": "functional"}, "[12]": {"test": "THP-1 cell cytotoxicity, dose response, cytotoxicity control, set 3 (AID 504852)", "assay_type": "functional", "settings": "Mycobacterium tuberculosis"}, "[13]": {"test": "A Cell Based Secondary Assay to Explore Cytotoxicity in HepG2 Cells of Compounds that Modulate Mycobacterium tuberculosis in Media Containing Glycerol versus Media without Glycerol (2).", "assay_type": "functional"}, "[14]": {"tested_on": "INS1", "test": "beta cell apoptosis inhibitors, cytokine rescue, dose response, luminescence, retest (AID 449756);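 also: cell death triggered by IL-1 beta plus TNF-alpha plus IFN-gamma mixture; protective hits raise ATP signal compared with cytokine alone wells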", "assay_type": "functional, cell-based", "settings": "Rattus norvegicus"}, "[15]": {"tested_on": "BJ", "test": "cells", "assay_type": "functional, cell-based", "settings": "Homo sapiens"}, "[16]": {"test": "microbe, parasite or virus in culture", "assay_type": "functional", "settings": "Mycobacterium tuberculosis"}, "[17]": {"tested_on": "BJ", "test": "cytotoxicity toward BJ-TERT-LT-ST fibroblasts, dose response, cell-based, RAS-independent, luminescence (AID 1935);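 also: BJ fibroblasts immortalized with TERT plus LT and ST oncogenes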", "assay_type": "functional", "settings": "Homo sapiens"}, "[18]": {"tested_on": "HEK293", "test": "optical interference in Abeta FP readout, dose response, artefact control for IDE activator project, biochemical, fluorescence polarization (AID 588442)", "assay_type": "functional, cell-based", "settings": "Homo sapiens"}, "[19]": {"target": "T3, Insulin-degrading enzyme (Homo sapiens, UniProt P14735)", "T3 sequence (P14735 whole entry)": "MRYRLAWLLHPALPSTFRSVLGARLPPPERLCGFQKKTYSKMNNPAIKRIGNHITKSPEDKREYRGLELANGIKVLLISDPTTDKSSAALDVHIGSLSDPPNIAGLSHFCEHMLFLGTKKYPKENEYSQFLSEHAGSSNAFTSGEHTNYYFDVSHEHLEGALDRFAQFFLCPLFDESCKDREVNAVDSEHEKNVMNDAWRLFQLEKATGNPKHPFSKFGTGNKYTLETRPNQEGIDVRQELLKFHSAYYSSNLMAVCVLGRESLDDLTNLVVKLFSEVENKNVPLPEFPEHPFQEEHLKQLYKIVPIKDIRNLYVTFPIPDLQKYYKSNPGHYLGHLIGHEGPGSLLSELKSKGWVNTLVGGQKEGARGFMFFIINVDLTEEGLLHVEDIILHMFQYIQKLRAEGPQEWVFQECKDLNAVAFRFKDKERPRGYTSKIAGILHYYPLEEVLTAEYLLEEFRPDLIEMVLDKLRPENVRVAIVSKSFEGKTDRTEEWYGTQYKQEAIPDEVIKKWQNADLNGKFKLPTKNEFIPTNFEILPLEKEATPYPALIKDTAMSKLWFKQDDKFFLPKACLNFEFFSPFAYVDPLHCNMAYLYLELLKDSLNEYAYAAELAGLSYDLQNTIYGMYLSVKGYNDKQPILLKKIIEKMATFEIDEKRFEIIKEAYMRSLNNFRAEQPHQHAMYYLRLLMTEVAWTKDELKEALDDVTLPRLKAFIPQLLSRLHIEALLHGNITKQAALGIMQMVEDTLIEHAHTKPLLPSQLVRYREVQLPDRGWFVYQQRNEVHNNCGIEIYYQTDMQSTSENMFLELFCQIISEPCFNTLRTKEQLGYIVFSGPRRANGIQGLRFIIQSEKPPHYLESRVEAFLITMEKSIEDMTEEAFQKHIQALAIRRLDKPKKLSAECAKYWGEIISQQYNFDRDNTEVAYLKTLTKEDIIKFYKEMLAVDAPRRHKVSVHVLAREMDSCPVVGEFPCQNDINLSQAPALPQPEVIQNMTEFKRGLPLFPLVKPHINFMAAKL", "test": "activators of endogenous IDE in HEK cells, dose response, cell-based, fluorescence polarization (AID 588439)", "assay_type": "functional"}, "[20]": {"target": "T3, Insulin-degrading enzyme", "test": "activators of recombinant IDE enzyme, dose response, counter-screen for IDE activator project, biochemical, fluorescence polarization (AID 588681)"}, "[21]": {"tested_on": "HEK293", "test": "HEK cell cytotoxicity by LDH release, dose response, cytotoxicity control for IDE activator project, fluorescence, HEK cells (AID 588440);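 also: cytotoxicity by LDH release measuring loss of membrane integrity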", "assay_type": "functional, cell-based", "settings": "Homo sapiens"}}, "note": "Active and inactive are the calls of the source."}
{"smiles": "O=c1c(O[C@H]2O[C@@H](CO)[C@H](O)[C@@H](O)[C@@H]2O)c(-c2ccc(O)cc2)oc2cc(O)cc(O)c12", "values": [{"measurement": "AC50", "setting": "[1]", "value": "0.0155 µM (active)"}]}
{"smiles": "Cc1cccc(/C=C/C(=O)c2ccc([N+](=O)[O-])o2)c1", "values": [{"measurement": "CC50", "setting": "[2]", "value": "12.2 µM (active)"}, {"measurement": "EC50", "setting": "[3]", "value": "2.23 µM (active)"}, {"measurement": "AC50", "setting": "[4]", "value": "2.39 µM (active)"}, {"measurement": "EC50", "setting": "[5]", "value": "3.96 µM (active)"}, {"measurement": "CC50", "setting": "[6]", "value": "> 100 µM (active)"}, {"measurement": "EC50", "setting": "[7]", "value": "9.69 µM (active)"}, {"measurement": "EC50", "setting": "[8]", "value": "14.4 µM (active)"}, {"measurement": "CC50", "setting": "[9]", "value": "12.4 µM (active)"}, {"measurement": "EC50", "setting": "[10]", "value": "> 150 µM (not active)"}, {"measurement": "EC50", "setting": "[11]", "value": "3.43 µM (inconclusive)"}, {"measurement": "CC50", "setting": "[12]", "value": "> 100 µM (active)"}, {"measurement": "CC50", "setting": "[13]", "value": "8.39 µM (active)"}, {"measurement": "AC50", "setting": "[14]", "value": "3.29 µM (active)"}, {"measurement": "EC50", "setting": "[15]", "value": "> 150 µM (inconclusive)"}, {"measurement": "CC50", "setting": "[16]", "value": "18.8 µM (active)"}, {"measurement": "EC50", "setting": "[17]", "value": "> 150 µM (inconclusive)"}]}
{"smiles": "CCOC(=O)c1cccc(P(C)(C)=O)c1", "values": [{"measurement": "EC50", "setting": "[18]", "value": "> 54.7 µM (inactive)"}, {"measurement": "EC50", "setting": "[19]", "value": "> 54.7 µM (inactive)"}, {"measurement": "EC50", "setting": "[20]", "value": "> 54.7 µM (inactive)"}, {"measurement": "IC50", "setting": "[21]", "value": "> 89.1 µM (inactive)"}]}
